Columns and labels:
[1] = system: Candida albicans; settings: 50 or 100 μg/mL for 30 minutes; versus Efinaconazole, Tavaborole, Terbinafine, Ciclopirox
Experimental: To evaluate fast-acting effects of Compound 74, the growth of Candida albicans was studied by treating Candida albicans with Compound 74 or commercially available drug of Efinaconazole, Tavaborole, Terbinafine, or Ciclopirox at the same concentration for the same period of time. Specifically, Candida albicans were prepared at a concentration of 2.5×10^3 cfu/ ? and aliquoted at 195 ? /well into 96-well plates. Subsequently, Candida albicans cells in 96-well plate were treated with Compound 74 or each of the commercially available comparative drugs (50 μg/ ? or 100 μg/ ? ) for 30 minutes, respectively. Next, Compound 74 treated fungal cells were seeded on YPD media (Sigma-Aldrich), and the number of single colonies grown was counted.

[2] = system: S. epidermidis (+); settings: MHB liquid medium, 37° C., 24 hours
[3] = system: S. aureus (+); settings: MHB liquid medium, 37° C., 24 hours
[4] = system: Candida albicans biofilm; settings: 4, 8, 16 and 32 μg/mL, 24 hours after treatment; versus Caspofungin, Amphotericin B, Efinaconazole
[5] = system: T. rubrum; settings: 0.5- to 16-fold MIC, 0 to 120 hours; versus Efinaconazole, Amorolfine, Terbinafine, Ciclopirox, Amphotericin B
Experimental: Specifically, T. rubrum cells (6×10^3 cfu/ ? ) were prepared and aliquoted at 195 ? /well into 96-well plates.

[6] = system: C. neoformans; settings: RPMI1640 broth, 35° C., 72 hours, visual reading; expressed as a range value
[7] = system: A. fumigatus; settings: visual reading; expressed as a range value
Experimental: (§3) An in vitro antifungal susceptibility test was performed in accordance with the US Clinical and Laboratory Standards Institute (CLSI) guidelines to measure the degree of antifungal activity of the compounds synthesized in the Preparation Examples against opportunistic pathogenic fungi. […] The MIC value (μg/ ? ) is expressed as a range value. Specifically, Candida species and Cryptococcus neoformans were incubated in a Sabouraud dextrose agar (SDA) (Sigma-Aldrich) solid medium for 24 and 48 hours, respectively to obtain single colonies. The obtained single colonies were suspended in 0.85% physiological saline to prepare fungal cell suspension (1 to 5×10^6 cells/ ? ). Fungal cells 2000-fold diluted in RPMI1640 broth (Sigma-Aldrich) were seeded on 96-well plates (5×10^2 to 2.5×10^3 cells/ ? , 195 ? /well). Serial two-fold dilutions (128, 64, 32, 16, 8, 4, 2, 1, and 0.5 μg/ ? ) of compounds were prepared by diluting the compounds synthesized according to the above preparation examples. Then, 5 ? from each dilution was added to the well of the 96-well plate containing fungal cell suspension to give a final suspension of 200 ? per well. […] As a positive control, amphotericin B (AMB), which is highly toxic to the human body but is known as a representative antifungal agent, was used.

[8] = system: C. albicans 12-99 (Mutant); settings: 35° C., 48 hours
Experimental: (§1) Fungal cells were spread on YPD solid media (Sigma-Aldrich) and then aliquoted into the wells of the 96-well plates (2.5×10^3 microconidia/ ? for T. rubrum and T. mentagrophytes species or was 2.5×10^3 cfu/ ? for Candida albicans, Candida glabrata and Cryptococcus neoformans species, 195 ? /well). […] The compound-treated fungal cells were incubated in a 35° C. incubator for 48 hours (Candida species) and for 72 hours (C. neoformans and Trichophyton species), respectively.

[9] = system: C. albicans ATCC90028 (WT); settings: 35° C., 48 hours; n = 30
Experimental: as §1

[10] = system: C. glabrata; settings: 35° C., 48 hours; n = 30
Experimental: as §1

[11] = system: C. tropicalis; settings: 35° C., 48 hours
Experimental: as §1

[12] = system: T. mentagrophytes (KCCM60449); settings: 35° C., 72 hours
Experimental: as §1

[13] = system: C. neoformans; settings: 35° C., 72 hours; n = 10
Experimental: as §1

[14] = system: A. fumigatus
Experimental: as §1

[15] = system: T. rubrum (KCCM60450); settings: 35° C., 72 hours
Experimental: as §1

[16] = system: T. rubrum (KCCM60443); settings: 35° C., 72 hours
Experimental: as §1

[17] = system: P. acnes (+); experiment: Antibacterial MIC test (CLSI); assay type: cell-based; settings: MHB liquid medium, 37° C., 24 hours
Experimental: (§2) The MIC test was conducted in accordance CLSI guidelines. […] As a positive control, Nofloxacin and Vancomycin were used.

[18] = system: L. monocytogenes (+); experiment: Antibacterial MIC test (CLSI); assay type: cell-based; settings: MHB liquid medium, 37° C., 24 hours
Experimental: as §2

[19] = system: M. luteus (+); experiment: Antibacterial MIC test (CLSI); assay type: cell-based; settings: MHB liquid medium, 37° C., 24 hours
Experimental: as §2

[20] = system: B. coagulans (+); experiment: Antibacterial MIC test (CLSI); assay type: cell-based; settings: MHB liquid medium, 37° C., 24 hours
Experimental: as §2

[21] = system: B. subtilis (+); experiment: Antibacterial MIC test (CLSI); assay type: cell-based; settings: MHB liquid medium, 37° C., 24 hours
Experimental: as §2

[22] = system: S. aureus enterica (−); experiment: Antibacterial MIC test (CLSI); assay type: cell-based; settings: MHB liquid medium, 37° C., 24 hours
Experimental: as §2

[23] = system: B. cereus (+); experiment: Antibacterial MIC test (CLSI); assay type: cell-based; settings: MHB liquid medium, 37° C., 24 hours
Experimental: as §2

[24] = system: E. coli (−); experiment: Antibacterial MIC test (CLSI); assay type: cell-based; settings: MHB liquid medium, 37° C., 24 hours
Experimental: as §2

[25] = system: C. glabrata; settings: RPMI1640 broth, 35° C., 48 hours, visual reading; expressed as a range value
Experimental: as §3

[26] = system: C. albicans; settings: RPMI1640 broth, 35° C., 48 hours, visual reading; expressed as a range value
Experimental: as §3

[27] = system: MRSA; experiment: Antibacterial MIC test (CLSI); assay type: cell-based, Methicillin-resistant Staphylococcus aureus; settings: MHB liquid medium, 37° C., 24 hours
Experimental: as §2

[28] = system: interleukin 6 (IL-6); settings: RAW264.7 cells, compound 8 μg/mL 1 hour, then LPS 1 μg/mL 24 hours; relative to LPS without compound
Experimental: The anti-inflammatory effects of the compounds of the present invention were evaluated using RAW264.7 cells which were stimulated to secrete interleukin 6 (IL-6). Specifically, RAW264.7 cells (obtained from Korean Cell Line Bank), mouse macrophages, were inoculated into a 12-well plate at 5×10^5 cells/well and incubated at 37° C. for 16 to 24 hours. The compounds of the present invention were added to the cell culture medium containing RAW264.7 cells incubated as above at a final concentration of 0 or 8 μg/ ? , and then incubated at 37° C. for 1 hour. Next, lipopolysaccharide (LPS, Sigma-Aldrich, USA) was further added to the medium at a final concentration of 1 μg/ ? , and the medium was incubated at 37° C. for 24 hours to induce IL-6 expression. Thereafter, IL-6 levels produced by the RAW264.7 cells were measured using an ELISA kit (Komabiotech Inc. Korea) according to the manufacturer's instructions. In Table 9, IL6 levels were expressed as a relative percentage (%) between LPS-induced IL6 levels after the treatment with the compound of the present invention and LPS-induced IL6 levels without the treatment of the compound of the present invention.

Row | SMILES | MIC S. epidermidis (+) [2] | MIC S. aureus (+) [3] | MIC (μg/mL) C. neoformans [6] | MIC (μg/mL) A. fumigatus [7] | MIC P. acnes (+) [17] | MIC L. monocytogenes (+) [18] | MIC M. luteus (+) [19] | MIC B. coagulans (+) [20] | MIC B. subtilis (+) [21] | MIC S. aureus enterica (−) [22] | MIC B. cereus (+) [23] | MIC E. coli (−) [24] | MIC (μg/mL) C. glabrata [25] | MIC (μg/mL) C. albicans [26] | MIC MRSA [27] | Relative IL-6 levels (%) [28] | other results
1 | CCCC(N)C(=O)NCCc1ccc(-c2ccc(Cl)c(Cl)c2)cc1.Cl (racemic) [Compound 74, (R)/(S)-2-amino-N-(2-(3′,4′-dichloro-[1,1′-biphenyl]-4-yl)ethyl)pentanamide hydrochloride] | 8 µg/mL | 8 µg/mL | 0.5~4 μg/mL | 0.5~4 μg/mL | 8 µg/mL | 8 µg/mL | 8 µg/mL | 2 µg/mL | 8 µg/mL | >32 µg/mL | 16 µg/mL | 32 µg/mL | 0.5~4 μg/mL | 0.5~4 μg/mL | 8 µg/mL | – | fast-acting effects (number of single colonies grown, FIG. 1) [1]: excellent fast-acting effects; biofilm disruption (growth of Candida albicans, FIG. 3) [4]: remarkably excellent growth inhibitory effects on Candida albicans through biofilm disruption; fungicidal effects (number of single colonies grown, FIG. 2) [5]: exhibited fungicidal effects at the MIC concentration; MIC C. albicans 12-99 (Mutant) [8]: 2~8 μg/mL; MIC C. albicans ATCC90028 (WT) [9]: 2~4 μg/mL; MIC C. glabrata [10]: 2~4 μg/mL; MIC C. tropicalis [11]: 2~4 μg/mL; MIC T. mentagrophytes (KCCM60449) [12]: 2~8 μg/mL; MIC C. neoformans [13]: 2~4 μg/mL; MIC A. fumigatus [14]: 2~8 μg/mL; MIC T. rubrum (KCCM60450) [15]: 2~4 μg/mL; MIC T. rubrum (KCCM60443) [16]: 1~4 μg/mL
2 | CCC(N)C(=O)NCCc1ccc(-c2ccc(C(F)(F)F)cc2)cc1.Cl (racemic) [Compound 76, (R)/(S)-2-amino-N-(2-(4′-(trifluoromethyl)-[1,1′-biphenyl]-4-yl)ethyl)butanamide hydrochloride] | 16 µg/mL | 32 µg/mL | 8~32 μg/mL | 8~32 μg/mL | 16 µg/mL | 16 µg/mL | 16 µg/mL | <4 µg/mL | 16 µg/mL | 32 µg/mL | 64 µg/mL | 16 µg/mL | 8~32 μg/mL | 16~64 μg/mL | 32 µg/mL | 9.58% | –
3 | CCCC(N)C(=O)NCCc1ccc(-c2ccc(F)c(F)c2)cc1.Cl (racemic) [Compound 82, (R)/(S)-2-amino-N-(2-(3′,4′-difluoro-[1,1′-biphenyl]-4-yl)ethyl)pentanamide hydrochloride] | – | – | 4~16 μg/mL | 4~16 μg/mL | – | – | – | – | – | – | – | – | 4~16 μg/mL | 4~16 μg/mL | – | 3% | –
4 | CCC(NC)C(=O)NCCc1ccc(-c2ccc(Cl)c(Cl)c2)cc1.Cl (racemic) [Compound 83, (R)/(S)-N-(2-(3′,4′-dichloro-[1,1′-biphenyl]-4-yl)ethyl)-2-(methylamino)butanamide hydrochloride] | – | – | 2~8 μg/mL | 8~32 μg/mL | – | – | – | – | – | – | – | – | 8~32 μg/mL | 8~32 μg/mL | – | 9% | –
5 | CCCC(NC)C(=O)NCCc1ccc(-c2ccc(C(F)(F)F)cc2)cc1.Cl (racemic) [Compound 87, (R)/(S)-2-(methylamino)-N-(2-(4′-(trifluoromethyl)-[1,1′-biphenyl]-4-yl)ethyl)pentanamide hydrochloride] | – | – | 4~16 μg/mL | 4~16 μg/mL | – | – | – | – | – | – | – | – | 4~16 μg/mL | 4~16 μg/mL | – | 24% | –

Reference: patent US12180139B2, “Method for preparing aminoalkanoic acid derivative containing biphenyl group” (AMTIXBIO CO., LTD., priority 2019, dated 2024)
